The values that follow come from US20150352108A1, “AMINO-PYRIMIDINE COMPOUNDS AS INHIBITORS OF TBK1 AND/OR IKK EPSILON” (Alzheimer's Institute of America, priority 2009, published 2015).

For orientation: IC50 means the midpoint of a concentration-inhibition curve.

SMILES strings stand for the structures. Read-outs that look alike come from different tables or passages of the source. Where only a bound is given, the exact number is not on record here.

Assay [1] concerns the target T1, TBK1 (Homo sapiens, UniProt Q9UHD2).
T1 construct: His-tag; made in house; host or cells: Sf9 insect cells
T1 sequence (Q9UHD2 1-729): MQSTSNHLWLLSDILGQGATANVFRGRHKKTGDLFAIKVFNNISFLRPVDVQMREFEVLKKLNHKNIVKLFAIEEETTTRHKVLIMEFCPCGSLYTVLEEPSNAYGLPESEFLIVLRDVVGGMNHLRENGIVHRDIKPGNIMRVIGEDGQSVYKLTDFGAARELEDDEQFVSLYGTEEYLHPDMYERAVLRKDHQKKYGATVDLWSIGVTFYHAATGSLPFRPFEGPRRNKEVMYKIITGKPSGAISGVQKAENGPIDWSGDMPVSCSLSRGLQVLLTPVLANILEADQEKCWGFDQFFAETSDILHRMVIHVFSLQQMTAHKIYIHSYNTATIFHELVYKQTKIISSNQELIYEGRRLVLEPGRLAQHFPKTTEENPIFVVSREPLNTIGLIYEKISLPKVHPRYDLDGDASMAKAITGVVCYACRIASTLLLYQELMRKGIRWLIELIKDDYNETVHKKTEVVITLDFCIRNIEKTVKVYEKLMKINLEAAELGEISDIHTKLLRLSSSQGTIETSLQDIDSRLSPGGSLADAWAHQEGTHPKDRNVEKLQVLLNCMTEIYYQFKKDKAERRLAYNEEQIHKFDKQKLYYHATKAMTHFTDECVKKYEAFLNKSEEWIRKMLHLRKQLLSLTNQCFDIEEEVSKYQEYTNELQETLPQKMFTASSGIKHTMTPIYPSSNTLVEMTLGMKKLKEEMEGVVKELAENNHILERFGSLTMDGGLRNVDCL
In words: In-vitro TBK1 kinase assay ([γ33]ATP filter-plate). Format: biochemical. The procedure, abridged: (§1)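 His-tagged IKKε and TBK1 from Sf9 cells were assayed with myelin basic protein or casein and [γ33]ATP at 2×Km ATP (32 μM for IKKε, 60 μM for TBK1). Enzyme was 0.1 or 0.015 μg/ml for IKKε and 0.1 or 0.02 μg/ml for TBK1 (normal/sensitized). Reactions ran 30-45 min, were filter-captured, scintillation-counted, and normalized to DMSO after background subtraction.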

Assay [2] concerns the target T2, IKKε (Homo sapiens, UniProt Q14164).
T2 construct: His-tag; made in house; host or cells: Sf9 insect cells
T2 sequence (Q14164 1-716): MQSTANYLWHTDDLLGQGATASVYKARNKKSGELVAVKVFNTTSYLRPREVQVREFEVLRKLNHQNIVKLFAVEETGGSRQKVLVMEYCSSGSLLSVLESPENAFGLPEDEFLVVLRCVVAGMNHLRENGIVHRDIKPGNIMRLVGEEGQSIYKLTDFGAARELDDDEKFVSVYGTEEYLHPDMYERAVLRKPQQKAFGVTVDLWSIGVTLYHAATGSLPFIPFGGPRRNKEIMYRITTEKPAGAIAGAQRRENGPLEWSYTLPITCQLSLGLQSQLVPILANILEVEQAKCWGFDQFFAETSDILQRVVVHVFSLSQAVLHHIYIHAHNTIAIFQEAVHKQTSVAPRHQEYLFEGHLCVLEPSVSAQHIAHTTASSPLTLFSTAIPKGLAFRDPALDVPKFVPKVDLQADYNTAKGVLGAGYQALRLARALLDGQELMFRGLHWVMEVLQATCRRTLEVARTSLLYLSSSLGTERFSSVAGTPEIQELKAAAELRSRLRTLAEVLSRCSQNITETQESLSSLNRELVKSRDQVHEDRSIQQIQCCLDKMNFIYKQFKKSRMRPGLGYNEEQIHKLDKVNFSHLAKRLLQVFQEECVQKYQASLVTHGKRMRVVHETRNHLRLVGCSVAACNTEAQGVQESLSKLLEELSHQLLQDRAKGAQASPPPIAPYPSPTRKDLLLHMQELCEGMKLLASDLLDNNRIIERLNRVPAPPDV
Description: In-vitro IKKε kinase assay ([γ33]ATP filter-plate). In kind it is biochemical. The procedure, abridged: as §1

Where [3] appears, read: text bins, read-out: IC50 for inhibition of the kinase activity of TBK1.
Where [4] appears, read: text bins, read-out: IC50 for inhibition of the kinase activity of IKKε.

In the case of `N#Cc1cc(-c2ccnc(Nc3ccc(N4CCOCC4)cc3)n2)ccc1OCC1CCCCO1` (centres unmarked) [Example 205, 5-(2-{[4-(Morpholin-4-yl)phenyl]amino}pyrimidin-4-yl)-2-(tetrahydro-2H-pyran-2-ylmethoxy) benzonitrile], the IC50 in assay [1] (setting [3]) was in the range of 0.01 to 0.1 µM; in assay [2] (setting [4]), 0.005 to 0.05 µM.

Take `COc1ccc(-c2ccnc(Nc3cccc(OCCN4CCOCC4)c3)n2)cc1C#N` [compound 314, 2-Methoxy-5-[2-({3-[2-(morpholin-4-yl)ethoxy]phenyl}amino)pyrimidin-4-yl]benzonitrile]: the concentration for half-maximal inhibition (IC50) in assay [1] (setting [3]) lay in the range of 0.01 to 0.1 µM; in assay [2] (setting [4]) it was 0.005 to 0.05 µM.

`CC(C)Oc1ccc(-c2ccnc(Nc3ccc(N4CCN(C)CC4)cc3)n2)cc1C#N` [compound 335, 5-(2-{[4-(4-Methylpiperazin-1-yl)phenyl]amino}pyrimidin-4-yl)-2-(propan-2-yloxy)benzonitrile]: the IC50 in assay [1] (setting [3]) was < 0.01 µM; in assay [2] (setting [4]), < 0.005 µM.

Turning to `N#Cc1cc(-c2ccnc(Nc3ccc(N4CCOCC4)cc3)n2)ccc1OCC1CCNC1` (centres unmarked) [compound 456, 5-(2-{[4-(morpholin-4-yl)phenyl]amino}pyrimidin-4-yl)-2-(pyrrolidin-3-ylmethoxy) benzonitrile], the IC50 in assay [1] (setting [3]) was < 0.01 µM; in assay [2] (setting [4]) it was 0.005 to 0.05 µM.

For the compound `COC1CN(C(=O)c2ccc(Nc3nccc(-c4ccc(NC(=O)C5CC5)c(C#N)c4)n3)cc2)C1` [compound 665, N-{2-Cyano-4-[2-({4-[(3-methoxyazetidin-1-yl)carbonyl]phenyl}amino)pyrimidin-4-yl]phenyl} cyclopropane-carboxamide], the figures for the IC50 in assay [1] (setting [3]) and in assay [2] (setting [4]) were < 0.01 µM and < 0.005 µM, respectively.

As for `COc1ccc(-c2ccnc(Nc3cccc(CN(C)CC(=O)N(C)C)c3)n2)cc1C#N` [Example 67, N~2~-(3-{[4-(3-Cyano-4-methoxyphenyl)pyrimidin-2-yl]amino}benzyl)-N,N,N~2~- trimethylglycinamide], the IC50 in assay [1] (setting [3]) is 0.01 to 0.1 µM; in assay [2] (setting [4]), 0.005 to 0.05 µM.

Regarding `N#Cc1cc(-c2ccnc(Nc3ccc(N4CCOCC4)cc3)n2)ccc1OC1CCN(C(=O)CO)CC1` [Example 190, 2-{[1-(Hydroxyacetyl)piperidin-4-yl]oxy}-5-(2-{[4-(morpholin-4-yl)phenyl]amino}pyrimidin-4-yl)benzonitrile], the IC50 in assay [1] (Table 3, read-out: TBK1 IC50) is 0.0003 µM; in assay [1] (setting [3]) it was < 0.01 µM; in assay [2] (Table 3, read-out: IKKε IC50), 0.0004 µM; in assay [2] (setting [4]), < 0.005 µM.

With `COc1ccc(-c2ccnc(Nc3ccc(S(=O)(=O)NCCN)c(OC)c3)n2)cc1C#N` [compound 366, N-(2-Aminoethyl)-4-{[4-(3-cyano-4-methoxyphenyl)pyrimidin-2-yl]amino}-2-methoxybenzene-sulfonamide], the figures for the IC50 in assay [1] (setting [3]) and in assay [2] (setting [4]) were 0.01 to 0.1 µM and 0.005 to 0.05 µM, respectively.

In the case of `CC(C)NC(=O)Nc1ccc(-c2ccnc(Nc3ccc(N4CCOCC4)cc3)n2)cc1C#N` [Example 60, 1-[2-cyano-4-(2-{[4-(morpholin-4-yl)phenyl]amino}pyrimidin-4-yl)phenyl]-3-propan-2-ylurea], the 50% inhibitory concentration (IC50) was in the range of 0.01 to 0.1 µM in assay [1] (setting [3]) and 0.005 to 0.05 µM in assay [2] (setting [4]).

Turning to `COc1cc(Nc2nc(-c3ccc(OC4CCOCC4)c(C#N)c3)c3nc[nH]c3n2)ccc1N1CCOCC1` [compound 633, 5-(2-{[3-Methoxy-4-(morpholin-4-yl)phenyl]amino}-3H-purin-6-yl)-2-(tetrahydro-2H-pyran-4-yloxy)benzonitrile], the half-maximal inhibitory concentration (IC50) in assay [1] (setting [3]) was < 0.01 µM; in assay [2] (setting [4]), 0.005 to 0.05 µM.

In the case of `C[C@H](O)C(=O)N1CCC(Oc2ccc(-c3ccnc(Nc4ccc(C(=O)NCCN(C)C)cc4)n3)cc2C#N)CC1` [compound 367, 4-({4-[3-cyano-4-({1-[(2S)-2-hydroxypropanoyl]piperidin-4-yl}oxy)phenyl]pyrimidin-2-yl}amino)-N-[2-(dimethylamino)ethyl]benzamide], the IC50 was < 0.01 µM in assay [1] (setting [3]) and < 0.005 µM in assay [2] (setting [4]).

As for `COc1ccc(-c2ccnc(Nc3ccc(OCCN4CCOCC4)c(OC)c3)n2)cc1C#N` [Example 273, 2-Methoxy-5-[2-({3-methoxy-4-[2-(morpholin-4-yl)ethoxy]phenyl}amino)pyrimidin-4-yl]benzonitrile], the half-maximal inhibitory concentration (IC50) lay within 0.01 to 0.1 µM in assay [1] (setting [3]) and 0.005 to 0.05 µM in assay [2] (setting [4]).
